Consider 26 compounds from patent US8686024B2, “Indoline derivatives” (priority 2009, dated 2014).

By IC50 is commonly meant the concentration at which inhibition is half-maximal.

The target in test [1] is T1, butyrylcholine esterase (BuChE) (Mus musculus, UniProt Q03311).
T1 construct: brain homogenate and serum of mouse were used as choline esterase enzyme sources; from tissue; host or cells: mouse serum
Nature of the test: In vitro assay for choline esterase inhibition (Ellman method), butyrylthiocholine substrate, mouse serum. It is filed as biochemical. As to conditions: for Ratio AChE/BuChE: selectivity for BuChE inhibition: IC50 (AchE)/IC50 (BuChE); for selectivity to butyrylcholinesterase (BuChE versus AChE inhibitory activity), in words: summary of Tables 1-3. The procedure: (§1) For measurement of esterase activity, brain homogenate and serum of mouse were used as choline esterase enzyme sources, and the method of Ellman et. al (Biochemical pharmacology 7: 88-95 1961) were referred. Compound of each example were diluted in dimethylsulfoxide.
(§2) In detail, acetylthiocholine or butyrylthiocholine as substrates, test compounds, and DNTB [[…]] were added to the mouse brain homogenate or serum, respectively.
(§3) After incubation, thiocholine was produced by enzyme reaction in the mixture, and then, the yellow product was formed by the reaction of thiocholine and DTNB. The activity of acetylcholine esterase (AChE) or butyrylcholine esterase (BuChE) was evaluated by determination of absorbance at 415 nm. […] And the selectivity for BuChE inhibition of each compound was calculated by the ratio: IC50 (AchE)/IC50 (BuChE).
For orientation: Ellman's reagent forms a yellow product with free thiols.

The target of test [2] is T2, acetylcholine esterase (AChE) (Mus musculus, UniProt P21836).
T2 construct: brain homogenate and serum of mouse were used as choline esterase enzyme sources; from tissue; host or cells: mouse brain homogenate
T2 sequence (P21836 32-614): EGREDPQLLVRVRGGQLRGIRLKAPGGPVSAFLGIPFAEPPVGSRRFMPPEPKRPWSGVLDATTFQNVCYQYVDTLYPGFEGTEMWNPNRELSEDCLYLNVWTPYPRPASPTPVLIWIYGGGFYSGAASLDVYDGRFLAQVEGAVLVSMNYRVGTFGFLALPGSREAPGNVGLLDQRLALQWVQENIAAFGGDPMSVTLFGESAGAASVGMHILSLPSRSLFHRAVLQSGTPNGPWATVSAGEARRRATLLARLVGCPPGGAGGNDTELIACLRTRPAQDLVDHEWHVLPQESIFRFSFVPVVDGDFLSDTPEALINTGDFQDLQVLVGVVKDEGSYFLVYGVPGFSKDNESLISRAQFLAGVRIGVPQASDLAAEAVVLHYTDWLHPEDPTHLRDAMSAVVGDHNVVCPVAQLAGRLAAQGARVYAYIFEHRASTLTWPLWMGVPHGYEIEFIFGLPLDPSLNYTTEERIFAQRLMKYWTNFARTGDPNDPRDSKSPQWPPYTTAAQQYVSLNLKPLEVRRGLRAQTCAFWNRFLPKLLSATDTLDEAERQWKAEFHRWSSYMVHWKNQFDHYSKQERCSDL
Description: In vitro assay for choline esterase inhibition (Ellman method), acetylthiocholine substrate, mouse brain homogenate. The class given is biochemical. The procedure:
as §1, §2, §3

[3] abbreviates: mouse serum, butyrylthiocholine, absorbance at 415 nm, read-out: BuChE inhibitory activity IC50.
Setting [4] is: mouse brain homogenate, acetylthiocholine, absorbance at 415 nm, read-out: AChE inhibitory activity IC50.

SMILES strings stand for the structures. Where two headings read alike, the source gives them in different places.

T1 sequence (Q03311 30-603): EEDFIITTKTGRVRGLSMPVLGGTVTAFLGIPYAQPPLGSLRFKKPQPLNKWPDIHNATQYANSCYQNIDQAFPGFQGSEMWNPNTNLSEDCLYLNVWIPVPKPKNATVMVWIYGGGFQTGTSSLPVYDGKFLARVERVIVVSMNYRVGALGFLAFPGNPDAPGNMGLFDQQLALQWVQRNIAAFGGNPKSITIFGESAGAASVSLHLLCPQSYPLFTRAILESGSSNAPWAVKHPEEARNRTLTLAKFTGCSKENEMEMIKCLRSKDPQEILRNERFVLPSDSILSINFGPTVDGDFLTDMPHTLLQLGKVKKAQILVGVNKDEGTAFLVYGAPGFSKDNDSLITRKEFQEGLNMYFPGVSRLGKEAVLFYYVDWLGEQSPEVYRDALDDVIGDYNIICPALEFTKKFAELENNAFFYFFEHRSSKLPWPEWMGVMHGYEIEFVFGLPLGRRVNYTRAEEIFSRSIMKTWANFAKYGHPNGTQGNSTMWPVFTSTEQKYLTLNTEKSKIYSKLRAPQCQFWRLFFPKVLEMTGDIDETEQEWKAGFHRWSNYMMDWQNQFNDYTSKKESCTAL

As for `CNC(=O)Oc1ccc2c(c1)CCN2Cc1ccccc1` [Example 131, 1-benzylindolin-5-yl methylcarbamate], in test [1], the half-maximal inhibitory concentration (IC50) worked out at 210 nM and the “Ratio AChE/BuChE” value is 6.2. This compound also displayed an IC50 in test [2] of 1.3 µM.

On to `CC(C)c1ccc(NC(=O)Oc2ccc3c(c2)CCN3CCC(C)(C)C)cc1` [Example 7, 1-(3,3-dimethylbutyl)indolin-5-yl 4-isopropylphenylcarbamate], for which the figures for the IC50 in test [1] and in test [2] were 900 nM and above 100 µM, respectively. In test [1], the “Ratio AChE/BuChE” value was above 110.

For `CC(C)c1ccc(NC(=O)Oc2ccc3c(c2)CCN3Cc2ccncc2)cc1` [Example 27, 1-(4-pyridylmethyl)indolin-5-yl 4-isopropylphenylcarbamate], the concentration for half-maximal inhibition (IC50) in test [1] was 1100 nM; in test [2] it was above 100 µM. Also, the “Ratio AChE/BuChE” value in test [1] was above 91.

As for `CCCN(CCC)C(=O)CC1c2cc(OC(=O)Nc3ccc(C(C)C)cc3)ccc2N(Cc2ccccc2)C1C` (stereo not shown) [Example 162, 1-benzyl-3-(di-n-propylaminocarbonylmethyl)-2-methylindolin-5-yl 4-isopropyl phenylcarbamate], in test [1], it took 410 nM to reach half-maximal inhibition (IC50) and the “Ratio AChE/BuChE” value is given as above 240. In test [2], this compound yielded an IC50 above 100 µM.

`CC(C)c1ccc(NC(=O)Oc2ccc3c(c2)C(C)CN3Cc2ccccc2)cc1` (stereo not shown) [Example 146, 1-benzyl-3-methylindolin-5-yl-4-isopropylphenylcarbamate]: the IC50 in test [1] (setting [3]) was 180 nM; in test [2] (setting [4]), above 100 µM. Besides, in test [1], the “Ratio AChE/BuChE” value was above 560.

As for `CC(C)c1ccc(NC(=O)Oc2ccc3c(c2)CCN3Cc2ccccc2)cc1` [Example 2, 1-benzylindolin-5-yl 4-isopropylphenylcarbamate], in test [1], the half-maximal inhibitory concentration (IC50) was 570 nM and the “Ratio AChE/BuChE” value is on record as above 180. Moreover, in test [2], the 50% inhibitory concentration (IC50) was above 100 µM.

On to `O=C(NC1Cc2ccccc2C1)Oc1ccc2c(c1)CCN2Cc1ccccc1` [Example 44, 1-benzylindolin-5-yl 2-indanylcarbamate], for which, in test [1], the midpoint of inhibition, the IC50, lay at 32 nM; the “Ratio AChE/BuChE” value was above 3100; the “selectivity to butyrylcholinesterase (BuChE versus AChE inhibitory activity), in words” value is “much higher”. This compound also showed an IC50 in test [2] above 100 µM.

For the compound `O=C(NCC1CCOC1)Oc1ccc2c(c1)CCN2Cc1ccccc1` (stereo not shown) [Example 155, 1-benzylindolin-5-yl 3-tetrahydrofurylmethylcarbamate], the IC50 was 15 nM in test [1] (setting [3]) and 57 µM in test [2] (setting [4]). Moreover, the “Ratio AChE/BuChE” value in test [1] is listed as 3800. Besides, in test [1], the “selectivity to butyrylcholinesterase (BuChE versus AChE inhibitory activity), in words” value is reported as “much higher”.

As for `CN(C)CC(C)(C)CNC(=O)Oc1ccc2c(c1)CCN2Cc1ccccc1` [Example 156, 1-benzylindolin-5-yl 3-dimethylamino-2,2-dimethylpropylcarbamate], in test [1], it took 510 nM to reach half-maximal inhibition (IC50) and the “Ratio AChE/BuChE” value is above 200. For the same compound, in test [2], the IC50 was above 100 µM.

As to `CCCNC(=O)Oc1ccc2c(c1)CCN2Cc1ccccc1` [Example 114, 1-benzylindolin-5-yl n-propylcarbamate], the IC50 in test [1] (setting [3]) came to 180 nM; in test [2] (setting [4]), 5.2 µM. Further, in test [1], the “Ratio AChE/BuChE” value stood at 29.

With `O=C(NC1CCCCC1)Oc1ccc2c(c1)CCN2Cc1ccccc1` [Example 20, 1-benzylindolin-5-yl cyclohexylcarbamate], in test [1], the IC50 was 67 nM; the “Ratio AChE/BuChE” value was above 1500; the “selectivity to butyrylcholinesterase (BuChE versus AChE inhibitory activity), in words” value is recorded as “much higher”. Besides, the half-maximal inhibitory concentration (IC50) in test [2] was above 100 µM.

As to `CC(C)c1ccc(NC(=O)Oc2ccc3c(c2)CCN3Cc2cccc(O)c2)cc1` [Example 62, 1-(3-hydroxybenzyl)indolin-5-yl 4-isopropylphenylcarbamate], in test [1], inhibition was half-maximal at 450 nM (IC50) and the “Ratio AChE/BuChE” value is given as above 220. Also, the half-maximal inhibitory concentration (IC50) in test [2] was above 100 µM.

As for `CC(C)c1ccc(NC(=O)Oc2ccc3c(c2)CCN3Cc2c[nH]c3ccccc23)cc1` [Example 80, 1-(indol-3-ylmethyl)indolin-5-yl 4-isopropylphenylcarbamate], in test [1], half-maximal inhibition (IC50) required 140 nM and the “Ratio AChE/BuChE” value was above 710. The compound also showed a concentration for half-maximal inhibition (IC50) in test [2] above 100 µM.

As for `O=C(NC1CCCc2ccccc21)Oc1ccc2c(c1)CCN2Cc1ccccc1` (stereo not shown) [Example 96, 1-benzylindolin-5-yl-1,2,3,4-tetrahydronaphthalen-1-ylcarbamate], the concentration for half-maximal inhibition (IC50) in test [1] (setting [3]) was 17 nM. In addition, in test [1], the “Ratio AChE/BuChE” value was above 5900 and the “selectivity to butyrylcholinesterase (BuChE versus AChE inhibitory activity), in words” value is recorded as “much higher”. Further, the 50% inhibitory concentration (IC50) in test [2] (setting [4]) is above 100 µM.

`CCCN(CCC)C(=O)CC1CN(Cc2ccccc2)c2ccc(OC(=O)Nc3ccc(C(C)C)cc3)cc21` (stereo not shown) [Example 161, 1-benzyl-3-(di-n-propylaminocarbonylmethyl)indolin-5-yl 4-isopropylphenylcarbamate]: the values for the IC50 in test [1] and in test [2] were 150 nM and above 100 µM, respectively. Also, the “Ratio AChE/BuChE” value in test [1] is recorded as above 670.

As for `O=C(NC1CCCCC1)Oc1ccc2c(c1)CCN2Cc1ccccn1` [Example 149, 1-(2-pyridylmethyl)indolin-5-yl cyclohexylcarbamate], the 50% inhibitory concentration (IC50) in test [1] (setting [3]) stood at 58 nM; in test [2] (setting [4]), 2.2 µM. Further, in test [1], the “Ratio AChE/BuChE” value is on record as 38.

With `CSCCCNC(=O)Oc1ccc2c(c1)CCN2Cc1ccccc1` [Example 49, 1-benzylindolin-5-yl 3-methylthiopropylcarbamate], the IC50 amounted to 12 nM in test [1] (setting [3]) and 6.3 µM in test [2] (setting [4]). For the same compound, the “Ratio AChE/BuChE” value in test [1] is recorded as 530. Also, the “selectivity to butyrylcholinesterase (BuChE versus AChE inhibitory activity), in words” value in test [1] was “much higher”.

Regarding `C=C(C)CNC(=O)Oc1ccc2c(c1)CCN2Cc1ccccc1` [Example 53, 1-benzylindolin-5-yl 2-methylallylcarbamate], the IC50 in test [1] (setting [3]) is 28 nM. Besides, in test [1], the “Ratio AChE/BuChE” value was found to be 1600 and the “selectivity to butyrylcholinesterase (BuChE versus AChE inhibitory activity), in words” value is recorded as “much higher”. The 50% inhibitory concentration (IC50) in test [2] (setting [4]) stood at 46 µM.

Regarding `O=C(NCC1CCCO1)Oc1ccc2c(c1)CCN2Cc1ccccc1` (stereo not shown) [Example 51, 1-benzylindolin-5-yl 2-tetrahydrofurylmethylcarbamate], the half-maximal inhibitory concentration (IC50) in test [1] (setting [3]) was 16 nM; in test [2] (setting [4]), 18 µM. For the same compound, in test [1], the “Ratio AChE/BuChE” value was 1100. For the same compound, the “selectivity to butyrylcholinesterase (BuChE versus AChE inhibitory activity), in words” value in test [1] is reported as “much higher”.

With `CC(C)c1ccc(NC(=O)Oc2ccc3c(c2)CCN3Cc2ccccn2)cc1` [Example 60, 1-(2-pyridylmethyl)indolin-5-yl 4-isopropylphenylcarbamate], the 50% inhibitory concentration (IC50) in test [1] was 130 nM; in test [2] it was above 100 µM. Further, the “Ratio AChE/BuChE” value in test [1] is listed as above 770.

Turning to `CC(C)(C)CNC(=O)Oc1ccc2c(c1)CCN2Cc1ccccc1` [Example 153, 1-benzylindolin-5-yl 2,2-dimethylpropylcarbamate], in test [1], the IC50 was 91 nM; the “Ratio AChE/BuChE” value is recorded as above 1100; the “selectivity to butyrylcholinesterase (BuChE versus AChE inhibitory activity), in words” value is on record as “much higher”. The same compound gave an IC50 in test [2] above 100 µM.

Turning to `COc1cccc(CNC(=O)Oc2ccc3c(c2)CCN3Cc2ccccc2)c1` [Example 100, 1-benzylindolin-5-yl 3-methoxybenzylcarbamate], the concentration for half-maximal inhibition (IC50) in test [1] (setting [3]) worked out at 7.3 nM; in test [2] (setting [4]) it was 1.6 µM. Moreover, in test [1], the “Ratio AChE/BuChE” value is reported as 220. In addition, the “selectivity to butyrylcholinesterase (BuChE versus AChE inhibitory activity), in words” value in test [1] is “much higher”.

With `O=C(NCc1ccccn1)Oc1ccc2c(c1)CCN2Cc1ccccc1` [Example 102, 1-benzylindolin-5-yl 2-pyridylmethylcarbamate], the half-maximal inhibitory concentration (IC50) stood at 130 nM in test [1] (setting [3]) and 10 µM in test [2] (setting [4]). The “Ratio AChE/BuChE” value in test [1] worked out at 77.

As to `O=C(NC1CC1)Oc1ccc2c(c1)CCN2Cc1ccccc1` [Example 41, 1-benzylindolin-5-yl cyclopropylcarbamate], the results for the IC50 in test [1] (setting [3]) and in test [2] (setting [4]) were 190 nM and 36 µM, respectively. Further, the “Ratio AChE/BuChE” value in test [1] is reported as 190.

Take `CC(C)c1ccc(NC(=O)Oc2ccc3c(c2)CCN3Cc2ccc[nH]2)cc1` [Example 65, 1-[(pyrrol-2-yl)methyl]indolin-5-yl-4-isopropylphenylcarbamate]: the concentration for half-maximal inhibition (IC50) in test [1] (setting [3]) is 700 nM; in test [2] (setting [4]), above 100 µM. Also, the “Ratio AChE/BuChE” value in test [1] is given as above 140.

On to `O=C(NC1CCCCCCC1)Oc1ccc2c(c1)CCN2Cc1ccccc1` [Example 45, 1-benzylindolin-5-yl cyclooctylcarbamate], for which, in test [1], inhibition was half-maximal at 21 nM (IC50); the “Ratio AChE/BuChE” value is listed as above 4800; the “selectivity to butyrylcholinesterase (BuChE versus AChE inhibitory activity), in words” value is given as “much higher”. This compound showed an IC50 in test [2] above 100 µM.
